Experiment [1] deals with EJ-28 (muscle invasive bladder) cancer cells. Briefly: MTT cytotoxicity assay, EJ-28. The experiment is classed as cell-based, human. As to conditions: EJ-28 cells, 72 h, ± standard error, read-out: Growth Inhibition Concentration, GI50. On the procedure:
(§1) The Schiff bases and their organotin(IV) compounds were screened for in vitro cytotoxicity against a panel of 12 cancer cell lines: EJ-28 (muscle invasive bladder), RT-112 (minimum-invasive bladder), HT29 (colon), U87 and SJ-G2 (glioblastoma), MCF-7 (breast), A2780 (ovarian), H460 (lung), A431 (skin), DU145 (prostate), BE2-C (neuroblastoma), MIA (pancreatic) and one normal breast cell line (MCF-10A) using the MTT metabolic assay (Figure 6). After 72 h of incubation, a dose-dependent […] effect towards the cancer cell lines was measured at very low micromolar (µM) concentrations of the compounds. The growth inhibition concentration of the Schiff bases and their organotin(IV) compounds required to inhibit 50% cell proliferation relative to the cells that were treated with DMSO (control) are given in Table 2. The stability of these compounds was assessed in DMSO as well as in a mixture of DMSO-H2O. The absorbance obtained from UV-vis spectroscopy analysis was monitored for 72 h, and an unchanged pattern in the spectra was indicative that the compounds were stable in both the solvent systems tested.
(§2) The inhibitory effect of the synthesised compounds on the growth of bladder (EJ-28 and RT-112) cancer cells was evaluated by MTT assay. […] RT-112 and EJ-28, human bladder cancer cell lines used in this study (ATCC, Manassas, VA, USA) were cultured in RPMI-1640 (High glucose) medium supplemented with 10% fetal bovine serum containing 1% penicillin. The cells were cultured at 37 °C in a humidified atmosphere of 5% CO2 in air. Cells were seeded in 96-well plates at 6000 cells per well for 24 h, then they were treated with different concentrations of compounds for 72 h. The medium was subsequently removed and the wells were washed with 200 µL of phosphate buffer saline. Aliquots of 20 µL of 3-(4,5-dimethylthiazol-2-yl)-2,5-diphenyltetrazolium bromide (MTT) was added to each well and incubated for 4 h at 37 °C. Aliquots of 200 µL of media was then removed from each well and 200 µL of DMSO was added. Optical density (OD) was measured using an ELISA plate reader at 570 nm. Control wells (100% viability), containing media and DMSO, were included in all the experiments. All data points represented an average of triplicate assays. Cytotoxicity was expressed as CD50, i.e., the concentration that reduced the absorbance of treated cells by 50% with reference to the control (untreated cells).
Background: Tetrazolium assays rely on reduction of a dye to a coloured formazan, in cell work by metabolically active cells.

Experiment [2] relates to RT-112 (minimum-invasive bladder) cancer cells. Briefly: MTT cytotoxicity assay, RT-112. The experiment is classed as cell-based, human. As to conditions: RT-112 cells, 72 h, ± standard error, read-out: Growth Inhibition Concentration, GI50. The method, then: as §1, §2
Experiment [3] concerns A2780 (ovarian) cancer cells. Briefly: MTT growth inhibition assay, A2780. As to conditions: 72 h, ± standard error, read-out: Growth Inhibition Concentration, GI50. The experiment is classed as cell-based. On the procedure: as §1
(§3) For HT29 (colon), U87 and SJ-G2 (glioblastoma), MCF-7 (breast), A2780 (ovarian), H460 (lung), A431 (skin), Du145 (prostate), BE2-C (neuroblastoma), MIA (pancreas) cell lines and one normal breast cell line, MCF-10A (normal breast), the MTT assays were performed using the following method:
(§4) Stock solutions were prepared as follows and stored at −20 °C: Trial compounds were stored as 10 mM solutions in DMSO. All cell lines were cultured in a humidified atmosphere 5% CO2 at 37 °C. The cancer cell lines were maintained in Dulbecco’s modified Eagle’s medium (DMEM) (Trace Biosciences) supplemented with 10% foetal bovine serum, 10 mM sodium bicarbonate, penicillin (100 IU/mL), streptomycin (100 μg/mL) and glutamine (4 mM). The normal cell line, MCF-10A was cultured in DMEM:F12 (1:1) cell culture media, 5% heat inactivated horse serum, supplemented with penicillin (50 IU/mL), streptomycin (50 μg/mL), 20mM Hepes, L-glutamine (2 mM), epidermal growth factor (20 ng/mL), hydrocortisone (500 ng/mL), cholera toxin (100 ng/mL) and insulin (10 μg/mL).
(§5) Cells in logarithmic growth were transferred to 96-well plates. Cytotoxicity was determined by plating cells in duplicate in 100 μL medium at a density of 2500–4000 cells/well. On day 0 (24 h after plating), when the cells were in logarithmic growth, 100 μL medium, with or without the test agent, was added to each well. After 72 h drug exposure, growth inhibitory effects were evaluated using the MTT (3-[4,5-dimethylthiazol-2-yl]-2,5-diphenyltetrazolium bromide) assay and absorbance read at 540 nm. Percentage growth inhibition was determined at a fixed drug concentration of 25 μM. A value of 100% was indicative of complete cell growth inhibition. Those analogues showing appreciable percentage growth inhibition underwent further dose-response analysis allowing for the calculation of a GI50 value. This value is the drug concentration at which cell growth is 50% inhibited based on the difference between the optical density values on day 0 and those at the end of drug exposure.

In experiment [4] the test system is BE2-C (neuroblastoma) cancer cells. Briefly: MTT growth inhibition assay, BE2-C. As to conditions: 72 h, ± standard error, read-out: Growth Inhibition Concentration, GI50. The experiment is classed as cell-based. The method, then: as §1, §3, §4, §5
Experiment [5] relates to SJ-G2 (glioblastoma) cancer cells. Briefly: MTT growth inhibition assay, SJ-G2. The experiment is classed as cell-based. Conditions: for GI50: MTT, 72 h, ± standard error, read-out: Growth Inhibition Concentration, GI50. On the procedure:
as §1, §3, §4, §5

The test system of a further experiment is calf thymus DNA (CT-DNA). Briefly: CT-DNA binding by UV-vis absorption titration. As to conditions: for Bathochromism Shift (nm) / Hypochromism, (%): CT-DNA, UV-vis absorption titration; for Gibbs Free Energy: interaction with CT-DNA. On the procedure:
Both theoretical and experimental DNA binding of the synthesised organotin(IV) compounds with DNA were investigated. The interaction of organotin(IV) compounds with CT-DNA was elucidated via UV-visible absorption spectroscopy. […] The absorption spectra of diphenyltin(IV) compounds at a constant concentration (50 μM) in the absence and the presence of different concentrations of CT-DNA are shown in Figure 8. Upon increasing concentrations of CT-DNA, hypochromism and bathochromism occurred at around 350–377 nm indicating strong π–π stacking interactions between the aromatic chromophore of the organotin(IV) compounds and the nitrogeneous pair of the DNA strand [11, 70]. The same hypochromism and bathochromism shifts were also observed in other transitions. In order to compare the binding strength of the organotin(IV) compounds to CT-DNA, the intrinsic binding constants (Kb) were quantitatively determined and are presented in Table 3.
DNA binding experiments were carried out at 25°C. DNA concentration per nucleotide was determined using the molar absorption coefficient (6600 M^−1 cm^−1) at 260 nm. […] Absorption titration experiments were performed maintaining the concentration of the organotin(IV) compounds solutions at 50 µM and gradually increasing the concentration of CT-DNA. The organotin(IV) compounds were dissolved in DMSO and diluted with Tris-HCI buffer at room temperature (25 °C). The solutions were scanned over 230–600 nm. Absorbance values were recorded 10 min after the addition of DNA solution. The binding constant, Kb was determined using the equation: [DNA]/(εa−εf)=[DNA]/(εb−εf)+1/Kb(εb−εf) where [DNA] is the concentration of DNA in base pairs, εa corresponds to the apparent molar extinction coefficient Aabs/[M], εf corresponds to the extinction coefficient for the free organotin [M] and εb corresponds to the extinction coefficient for the fully bound organotin compound.

In the case of “Diphenyltin(IV) [Ph2Sn(S2MoVa), Diphenyltin(IV) [S-2-Methybenzyl-β-N-(2-hydroxy-3-methoxybenzylmethylene) dithiocarbazate]]”, the GI50 in experiment [1] worked out at 350 ± 50 nM; in experiment [2] it was 310 ± 50 nM; in experiment [3] it was 230 ± 10 nM; in experiment [4] it was 470 ± 50 nM; in experiment [5], 840 ± 90 nM. For the same substance, the “greater activity than respective Schiff base” value in experiment [5] (GI50 comparison) is reported as 3 fold. Moreover, the “Bathochromism Shift (nm)” value in the experiment with calf thymus DNA (CT-DNA) stood at 6 nm. Besides, the “Hypochromism, (%)” value in the experiment with calf thymus DNA (CT-DNA) is 41.06%. Moreover, the “Gibbs Free Energy” value with calf thymus DNA (CT-DNA) was -7.91 kcal/mol.

For “Diphenyltin(IV) [Ph2Sn(S4MoVa), Diphenyltin(IV) [S-4-Methybenzyl-β-N-(2-hydroxy-3-methoxybenzylmethylene) dithiocarbazate]]”, the GI50 in experiment [1] amounted to 3100 ± 370 nM; in experiment [2] it was 1700 ± 490 nM; in experiment [3], 350 ± 70 nM; in experiment [4], 530 ± 10 nM; in experiment [5], 1000 ± 160 nM. For the same substance, the “Bathochromism Shift (nm)” value in the experiment with calf thymus DNA (CT-DNA) came to 4 nm. Besides, the “Hypochromism, (%)” value with calf thymus DNA (CT-DNA) is given as 28.25%. Further, the “Gibbs Free Energy” value in the experiment with calf thymus DNA (CT-DNA) was -7.41 kcal/mol.
